According to patent publication US9861640B2, “Medicament for treatment of Alzheimer's disease” (KEMPHYS LTD., priority 2013, dated 2018):

Columns and labels:
Type in all cases: in vivo, mouse
APP23 mice = assay: Morris water maze (MWM) test; details: 8.5-month-old male APP23 mice; for acquisition of spatial learning (escape latency) in the MWM test: oral Am80 0.5 mg/kg and/or HX630 5 mg/kg for 17 days, vs vehicle-treated APP23 mice
Description: Hemizygous APP23 mice, which overexpress human-type AβPP carrying the double mutation K670N/M671L, were produced and bred as previously described. Only male mice were analyzed. Wistar rats were obtained from Kyudo Co., Ltd. (Kumamoto, Japan). Animals were housed in standard mouse cages under standard laboratory conditions: food and water available ad libitum, constant room temperature and humidity, and a 12 h light/12 h dark cycle (light on from 08:00 to 20:00). These animal experiments were conducted according to the guidelines of the Ministry of Education, Culture, Sports, Science, and Technology of Japan, and were approved by the Institutional Animal Care and Use Committee of Kumamoto University (#B25-133).
(§1) APP23 mice begin forming amyloid deposits when they are 6 months old, but memory deficits in the MWM test appear quite early (before 3 months of age). Here, we used 8.5-month-old male APP23 mice and their WT littermates (C57BL/6J). We used stratified random sampling to divide mice (four to six per cage) into four groups to equalize the mean body weight of the study groups: mice given 0.5 mg/kg/d Am80, those given 5 mg/kg/d HX630, those given the mixture of 0.5 mg/kg/d Am80 and 5 mg/kg/d HX630, and those given the vehicle. Am80 and HX630 were suspended in 0.5% (w/v) carboxymethylcellulose solution and were orally administered to mice at 0.5 mg/kg (Am80) or 5 mg/kg (HX630) for 17 consecutive days (once daily at 18:00). Control animals received the same volume of 0.5% (w/v) carboxymethylcellulose solution orally, without the other compounds. […]
The MWM test was performed as described previously. […] During both acquisition and probe trials, the routes of the mice were recorded by means of a computerized video tracking system (CompACT VAS; Muromachi Kikai Co. Ltd., Tokyo, Japan). Training trials measured the time it took for a mouse to find the escape platform. Probe trials determined the percent time spent in each quadrant of the maze. […]

NEP = assay: Immunoblot of NEP in brains of APP23 mice; details: Am80 0.5 and/or HX630 5 mg/kg/d, day 18, vs vehicle-treated mice
Description: as §1, with “compounds. We set the 0.5 mg/kg/d dose for Am80 on the basis that this had been found effective in other in vivo studies, such as those by Kawahara et al. and Ishido and Shudo [37]. Higher doses of Am80 (3 mg/kg/d and 6 mg/kg/d) were also orally administered to mice for 17 consecutive days. Animals were weighed once a week. Mice were subjected to behavioral testing on days 15-18 of the first oral administration of the compounds (at 19:00-23:00). On days 15-17 (not day 18), animals received the compounds at 24:00, after behavioral testing.” for “compounds.”

full-length (fl)-APP = assay: Immunoblot of full-length APP in brains of APP23 mice; details: 8.5-month-old male APP23 mice; Am80 0.5 and/or HX630 5 mg/kg/d; day 18
Description: as §1, with “compounds. We set the 0.5 mg/kg/d dose for Am80 on the basis that this had been found effective in other in vivo studies, such as those by Kawahara et al. and Ishido and Shudo [37]. Higher doses of Am80 (3 mg/kg/d and 6 mg/kg/d) were also orally administered to mice for 17 consecutive days. Animals were weighed once a week. Mice were subjected to behavioral testing on days 15-18 of the first oral administration of the compounds (at 19:00-23:00). On days 15-17 (not day 18), animals received the compounds at 24:00, after behavioral testing.” for “compounds.”

Structure (SMILES): CN1c2ccccc2N=C(c2ccc(C(=O)O)cc2)c2cc3c(cc21)C(C)(C)CCC3(C)C [HX630, 4-[5H-2,3-(2,5dimethyl-2,5-hexano)-5-methyldibenzo[b,e]-diazepin-11-yl]benzoic acid]
- acquisition of spatial learning (escape latency) in the MWM test (APP23 mice): No significant difference
- NEP protein level in brain (immunoblot) (NEP): Higher levels
- total amount of full-length (fl)-APP in brain (full-length (fl)-APP): had no effect

Structure (SMILES): CC1(C)CCC(C)(C)c2cc(NC(=O)c3ccc(C(=O)O)cc3)ccc21 [Am80, 4-{(5,6,7,8-tetrahydro-5,5,8,8-tetramethyl-2-naphthalenyl)carbamoyl}benzoic acid]
- acquisition of spatial learning (escape latency) in the MWM test (APP23 mice): No significant difference
- memory deficits in APP23 mice (MWM) (APP23 mice; oral Am80 0.5 mg/kg and/or HX630 5 mg/kg, 17 days): did not ameliorate memory deficits
- NEP protein level in brain (immunoblot) (NEP): Higher levels
- total amount of full-length (fl)-APP in brain (full-length (fl)-APP): had no effect
